Measured values reported in patent US9737546B2, “Small molecules to enhance P53 activity” (THE REGENTS OF THE UNIVERSITY OF CALIFORNIA, priority 2013, dated 2017).

Experiments:
p53 R175H = p53 R175H (Homo sapiens, UniProt P04637, R175H); details: cited from earlier work
p53 cancer mutants = assay: p53-dependent cell killing (or proliferation arrest) in Saos-2 cells expressing p53 cancer mutants; assay type: cell-based, human
Protocol: FIG. 3C is a graph of dose response curves for compounds 33BAZ and 27UDP using four different p53 cancer mutants: R175H, G245S, R248W, and R273H. Experimental conditions are as in FIG. 3A.
FIG. 3D is a panel of graphs of broad spectrum activity for four other compounds using four different p53 cancer mutants: R175H, G245S, R248W, and R273H. Experimental conditions are as in FIG. 3C, but a single dose was assayed: 27VFS (20 μM), 35LWZ (50 μM), 27WT9 (10 μM), and 26RQZ (10 μM).
Our previous p53 reactivation assays focused on p53-driven expression of the canonical p53 target genes p21 and PUMA (Wassman et al., 2013). However, there is significant evidence that neither p21 nor PUMA expression predict p53 anti-tumor activity (Hock & Vousden, 2012; Li et al., 2012; Valente et al., 2013). Indeed, our results comparing effects of PRIMA-1 and stictic acid support this view. […] We now use p21 and PUMA expression as an independent transcription assay for p53 cancer mutant reactivation, but not the primary selection criterion. We changed to p53-dependent cell killing (or proliferation arrest) as our main measure of efficacy because our long-term goal is anti-tumor drugs. […]
(§1) Our primary screen is the p53 cancer mutant R175H, which is the single most prevalent human cancer mutation. Active compounds were re-evaluated using an independent cell line expressing a different p53 cancer mutant, G245S.

[1] = tested on: parental Saos-2 (p53^null) cells; assay: Cell proliferation of parental Saos-2 (p53null) cells, CellTiter-Glo; assay type: cell-based; details: cultured 3 days, max. 200 μM, Zinc Leads Now compounds (FIG. 3A)
Protocol: FIG. 3A is a graph of reactivation activities of various compounds. Saos-2 cells expressing no p53 (p53^null), or expressing one of the cancer mutants p53-R175H or p53-G245S, were cultured for 3 days in the presence of different concentrations of compounds that had been selected from the Zinc Leads Now database, version of January, 2011, by the computational methods described below. The p53 reactivation compounds shown correspond to FIG. 1. Cell numbers were measured using the CellTiter-Glo® reagent. […] Data are presented as the standard error of the mean (n=3). Note that as of this writing eight compounds have been tested on the R175H mutant only (32CTM, 28NZ6, 27TGR, 27VFS, 35LWZ, 36EB5, 32LDE, and 32JCB).
FIG. 3B is a graph of reactivation activities of various compounds. Experimental conditions are as in FIG. 3A, but compounds were selected from the Chembridge Express Pick Library 2012 database, by the computational methods described below. The p53 reactivation compounds shown correspond to FIG. 2.
The basis for our primary assay is that cancer cells cannot tolerate active p53, stop proliferation, and eventually die. […]
as §1

p53 cancer mutant R175H = biological target: T1, p53 cancer mutant R175H (Homo sapiens, UniProt P04637, R175H); assay: p53 reactivation assay (cell killing / proliferation arrest) in Saos-2 cells expressing p53 cancer mutant R175H; assay type: cell-based; details: 50 μM pre-heated PRIMA-1, 72 h, Saos-2 cells (FIG. 5)
T1 construct: expressed in transfected cells; host or cells: Saos-2 (p53null) human osteosarcoma cells
Protocol: (§2) FIG. 5 is a graph showing that PRIMA-1 acts through cysteine 124 in p53. p53null Saos-2 cells expressing wild type p53, or the indicated p53 mutants, were treated with 50 μM pre-heated PRIMA-1 (“+”, left bar) or the medium without PRIMA-1 (DMSO, “−”, right bar) for 72 h. The increase in cell number during 72 h of growth is shown. Standard deviations represent 4 independent samples (Wassman, et al., 2013).
(§3) The increase in cell number during 72 h of growth is shown. As expected, the p53 cancer mutant R175H was activated by PRIMA-1. Mutating cysteine 124 to alanine blocked PRIMA-1 induced cancer mutant reactivation.
The basis for our primary assay is that cancer cells cannot tolerate active p53, stop proliferation, and eventually die. Expression of functional p53 in p53null Saos-2 osteosarcoma cells blocks their proliferation; expression of p53 cancer mutants has no effect (Wassman et al., 2013) (FIG. 5). Importantly, compounds that reactivate p53 cancer mutants specifically block proliferation of Saos-2 cells expressing p53 cancer mutants, but have no effect on growth of p53null cells at the same concentration (FIG. 3). […]
as §1

[2] = biological target: T2, R175H-p53 with A124 (cysteine 124 to alanine) (Homo sapiens, UniProt P04637, C124A/R175H); assay: PRIMA-1 treatment of Saos-2 cells expressing R175H-p53 with cysteine 124 changed to alanine; assay type: cell-based; details: 50 μM pre-heated PRIMA-1, 72 h, Saos-2 cells (FIG. 5)
T2 construct: expressed in transfected cells; host or cells: Saos-2 (p53null) human osteosarcoma cells
Protocol: as §2
Although the region around residue C124 is enriched for cancer rescue mutations, changes in position 124 have never been found, nor were they predicted by our SVM classifier, to reactivate p53 cancer mutants. Indeed, directed saturation mutagenesis of position 124 in the context of the R175H p53 cancer mutation explored all single amino acid changes at C124 and confirmed the absence of any genetic mutation rescue activity at this position. We could therefore test the computer predictions for a role of C124 in covalent drug binding in vivo by changing C124 into alanine to prevent the hypothetical thiol-mediated link with MQ.
as §3

[3] = tested on: p53-dependent reporter expression (p21 and PUMA promoter elements); assay: p21 and PUMA expression / transcriptional reporter assay based on p21 and PUMA promoter elements; assay type: cell-based, human; details: comparison of stictic acid and PRIMA-1
Excerpt: Our previous p53 reactivation assays focused on p53-driven expression of the canonical p53 target genes p21 and PUMA (Wassman et al., 2013). However, there is significant evidence that neither p21 nor PUMA expression predict p53 anti-tumor activity (Hock & Vousden, 2012; Li et al., 2012; Valente et al., 2013). Indeed, our results comparing effects of PRIMA-1 and stictic acid support this view. […] We now use p21 and PUMA expression as an independent transcription assay for p53 cancer mutant reactivation, but not the primary selection criterion. We changed to p53-dependent cell killing (or proliferation arrest) as our main measure of efficacy because our long-term goal is anti-tumor drugs.
An independent test for p53 cancer mutant reactivation is the well-established transcriptional reporter assay based on p21 and PUMA promoter elements (Wassman, et al., 2013). As above, the magnitude of reactivated p53-dependent transcription is not considered relevant for a compound's potency in cancer cell killing.

## CC(=NNC(=S)N(C)C)c1ccccn1 [NSC319725]
p53 R175H
  allele specificity of p53 mutant reactivation: R175H allele-specific

## C/C(=N\NC(=S)N1CCC1)c1ccccn1 [NSC319726]
p53 R175H
  allele specificity of p53 mutant reactivation: R175H allele-specific

## O=C1C2CCN(CC2)C1(CO)CO [PRIMA-1]
p53 cancer mutants; comparison of PRIMA-1 and stictic acid
  p53-dependent killing/arresting of cells: considerably more potent
[1]
  highest compound concentration that did not significantly affect cell proliferation of the parental Saos-2 (p53null) cells: 50 µM
p53 cancer mutant R175H
  effect on cells expressing the inactive R175H p53: reactivation and induction of cell death
[2]
  PRIMA-1 effects after introduction of A124 in R175H-p53: completely eliminated

## COc1cc(C)c2c(c1C=O)Oc1c(c(C)c(O)c3c1C(O)OC3=O)OC2=O (centres unmarked) [stictic acid]
p53 cancer mutants; one of 45 screened NCI DTP compounds
  p53 reactivation in biological assays: proved to be a p53 reactivation compound
[3]
  restoring p21 and PUMA expression in p53 cancer mutants: significantly better than PRIMA-1
